What was measured:
Test in all cases: MIC by microbroth dilution
Strept. sanguis L1721 = type: cell-based, Streptococcus sanguis; settings: 0,01% BSA, 10^4 CFU/ml, 18-24 h, Todd Hewitt broth
Protocol: (§1) The minimal inhibitory concentration (MIC) has been determined by microbroth dilution methodology, in the presence of 0,01% (w/v) of bovine serum albumin (BSA). BSA is added to the diluent to avoid possible adherence of the compounds of the invention to the plastic surface of the microtiter wells, as disclosed also by B. Goldstein et al., Antimicrobial Agents and Chemotherapy, 37 (1993), 741-745.
(§2) Inocula were 10^4 CFU/ml, except for Propionibacterium acnes and Bacteroides fragilis (10^5 CFU/ml) MICs were read after 18-24 h, except for Haemophilus influenzae, P. acnes, B. fragilis (48 h).
(§3) All microorganisms were incubated at 37° C.; H. influenzae in a 5% CO2 atmosphere, anaerobes in a N2 --CO2 --H2 (80:10:10) mixture; other organisms in air.
(§4) The growth media are: Oxoid Iso-Sensitest broth for staphylococci and Enterococcus faecalis); Difco Todd Hewitt broth for streptococci; Difco brain heart infusion broth+1% Difco Supplement C. for H. influenzae; Difco Wilkins-Chalgren broth for anaerobes.

[1] = test system: Haemoph. influenzae ATCC 19418 L970; type: cell-based, Haemophilus influenzae; settings: 0,01% BSA, 10^4 CFU/ml, 48 h, 5% CO2, brain heart infusion broth+1% Supplement C
Protocol: as §1, §2, §3, §4

Strept. agalactiae L310 = type: cell-based, Streptococcus agalactiae; settings: 0,01% BSA, 10^4 CFU/ml, 18-24 h, Todd Hewitt broth
Protocol: as §1, §2, §3, §4

[2] = test system: Staphylococcus aureus L165; type: cell-based; settings: 0,01% BSA, inoculum 10^4 CFU/ml, read after 18-24 h, Iso-Sensitest broth
Protocol: as §1, §2, §3, §4

[3] = test system: Streptococcus pyogenes L49; type: cell-based; settings: 0,01% BSA, 10^4 CFU/ml, 18-24 h, Todd Hewitt broth
Protocol: as §1, §2, §3, §4

Strept. pneumoniae L44 = type: cell-based, Streptococcus pneumoniae; settings: 0,01% BSA, 10^4 CFU/ml, 18-24 h, Todd Hewitt broth
Protocol: as §1, §2, §3, §4

[4] = test system: Bacteroides fragilis ATCC 25285 L1011; type: cell-based; settings: 0,01% BSA, 10^5 CFU/ml, 48 h, anaerobic, Wilkins-Chalgren broth
Protocol: as §1, §2, §3, §4

Structure (SMILES)	MIC of the compounds (Strept. sanguis L1721) [µg/mL]	MIC of the compounds [1] [µg/mL]	MIC of the compounds (Strept. agalactiae L310) [µg/mL]	MIC of the compounds [2] [µg/mL]	MIC of the compounds [3] [µg/mL]	MIC of the compounds (Strept. pneumoniae L44) [µg/mL]	MIC of the compounds [4] [µg/mL]
CCN1CCCC1CNC(=O)C1COC(c2csc(-c3ccc4c(n3)-c3csc(n3)-c3csc(n3)C(C(O)c3ccccc3)NC(=O)CNC(=O)c3nc(sc3COC)C(C(C)C)NC(=O)c3nc(sc3C)C(CC(=O)NC)NC(=O)c3csc-4n3)n2)=N1 (mixture of isomers) [Compound 1]	0.5	128	2	0.06	2	0.25	
CNC(=O)CC1NC(=O)c2csc(n2)-c2ccc(-c3nc(C4=NC(C(=O)NCCN5CCCC5)CO4)cs3)nc2-c2csc(n2)-c2csc(n2)C(C(O)c2ccccc2)NC(=O)CNC(=O)c2nc(sc2COC)C(C(C)C)NC(=O)c2nc1sc2C (mixture of isomers) [Compound 2]	0.5	128	4	0.06	1	0.25	
CCN(CC)CCNC(=O)C1COC(c2csc(-c3ccc4c(n3)-c3csc(n3)-c3csc(n3)C(C(O)c3ccccc3)NC(=O)CNC(=O)c3nc(sc3COC)C(C(C)C)NC(=O)c3nc(sc3C)C(CC(=O)NC)NC(=O)c3csc-4n3)n2)=N1 (mixture of isomers) [Compound 3]	0.5	128	4	0.06	2	0.5	
CNC(=O)CC1NC(=O)c2csc(n2)-c2ccc(-c3nc(C4=NC(C(=O)NCCCN(C)C)CO4)cs3)nc2-c2csc(n2)-c2csc(n2)C(C(O)c2ccccc2)NC(=O)CNC(=O)c2nc(sc2COC)C(C(C)C)NC(=O)c2nc1sc2C (mixture of isomers) [Compound 5]	0.25		2	0.06	1	0.25	32
CNC(=O)CC1NC(=O)c2csc(n2)-c2ccc(-c3nc(C4=NC(C(=O)NCCN(C)C)CO4)cs3)nc2-c2csc(n2)-c2csc(n2)C(C(O)c2ccccc2)NC(=O)CNC(=O)c2nc(sc2COC)C(C(C)C)NC(=O)c2nc1sc2C (mixture of isomers) [Compound 7]	1		8	0.13	4	1	
CCN(CCN(C)C)C(=O)C1COC(c2csc(-c3ccc4c(n3)-c3csc(n3)-c3csc(n3)C(C(O)c3ccccc3)NC(=O)CNC(=O)c3nc(sc3COC)C(C(C)C)NC(=O)c3nc(sc3C)C(CC(=O)NC)NC(=O)c3csc-4n3)n2)=N1 (mixture of isomers) [Compound 8]	1		4	0.06	8	0.5	
CCN(CC)CCN(CC)C(=O)C1COC(c2csc(-c3ccc4c(n3)-c3csc(n3)-c3csc(n3)C(C(O)c3ccccc3)NC(=O)CNC(=O)c3nc(sc3COC)C(C(C)C)NC(=O)c3nc(sc3C)C(CC(=O)NC)NC(=O)c3csc-4n3)n2)=N1 (mixture of isomers) [Compound 9]	1		32	0.06	2	0.5	
CNC(=O)CC1NC(=O)c2csc(n2)-c2ccc(-c3nc(C4=NC(C(=O)N5CCC(N(C)C)CC5)CO4)cs3)nc2-c2csc(n2)-c2csc(n2)C(C(O)c2ccccc2)NC(=O)CNC(=O)c2nc(sc2COC)C(C(C)C)NC(=O)c2nc1sc2C (mixture of isomers) [Compound 10]	0.5		4	0.06	2	0.25	
CNC(=O)CC1NC(=O)c2csc(n2)-c2ccc(-c3nc(C4=NC(C(=O)NCCN(C(C)C)C(C)C)CO4)cs3)nc2-c2csc(n2)-c2csc(n2)C(C(O)c2ccccc2)NC(=O)CNC(=O)c2nc(sc2COC)C(C(C)C)NC(=O)c2nc1sc2C (mixture of isomers) [Compound 11]	4		> 128	0.13	8	2	
CNC(=O)CC1NC(=O)c2csc(n2)-c2ccc(-c3nc(C4=NC(C(=O)N5CC(C)NC(C)C5)CO4)cs3)nc2-c2csc(n2)-c2csc(n2)C(C(O)c2ccccc2)NC(=O)CNC(=O)c2nc(sc2COC)C(C(C)C)NC(=O)c2nc1sc2C (mixture of isomers) [Compound 12]	0.5		4	0.06	2	0.5	
CNC(=O)CC1NC(=O)c2csc(n2)-c2ccc(-c3nc(C4=NC(C(=O)N(C)CC(=O)N(C)CCN(C)C)CO4)cs3)nc2-c2csc(n2)-c2csc(n2)C(C(O)c2ccccc2)NC(=O)CNC(=O)c2nc(sc2COC)C(C(C)C)NC(=O)c2nc1sc2C (mixture of isomers) [Compound 14]	0.25		4	0.06	2	0.25	
CNC(=O)CC1NC(=O)c2csc(n2)-c2ccc(-c3nc(C4=NC(C(=O)NC(C)C(=O)N(C)CCN(C)C)CO4)cs3)nc2-c2csc(n2)-c2csc(n2)C(C(O)c2ccccc2)NC(=O)CNC(=O)c2nc(sc2COC)C(C(C)C)NC(=O)c2nc1sc2C (mixture of isomers) [Compound 15]	0.5		4	0.06	4	0.25	
CNC(=O)CC1NC(=O)c2csc(n2)-c2ccc(-c3nc(C4=NC(C(=O)N(C)CCN(C)CCN(C)C)CO4)cs3)nc2-c2csc(n2)-c2csc(n2)C(C(O)c2ccccc2)NC(=O)CNC(=O)c2nc(sc2COC)C(C(C)C)NC(=O)c2nc1sc2C (mixture of isomers) [Compound 16]	0.25		8	0.06	2	0.25	
CNC(=O)CC1NC(=O)c2csc(n2)-c2ccc(-c3nc(C4=NC(C(=O)N5CCN(CCCN(C)C)CC5)CO4)cs3)nc2-c2csc(n2)-c2csc(n2)C(C(O)c2ccccc2)NC(=O)CNC(=O)c2nc(sc2COC)C(C(C)C)NC(=O)c2nc1sc2C (mixture of isomers) [Compound 17]	0.5		8	0.06	2	0.5	
CNC(=O)CC1NC(=O)c2csc(n2)-c2ccc(-c3nc(C4=NC(C(=O)N5CCCC5CN(C)CCN(C)C)CO4)cs3)nc2-c2csc(n2)-c2csc(n2)C(C(O)c2ccccc2)NC(=O)CNC(=O)c2nc(sc2COC)C(C(C)C)NC(=O)c2nc1sc2C (mixture of isomers) [Compound 21]	0.25		4	0.06	1	0.25	
